Activity calls are given as the source filed them. The calls are words filed in the database; no cut-off is given here.
Key:
MV4-11 = experiment: Antiproliferative activity against human MV4-11 cells assessed as inhibition of cell proliferation at 20 uM incubated for 48 hrs by CCK8 assay relative to control; assay type: functional
RAW264.7 [1] = experiment: Antiinflammatory activity against mouse RAW264.7 cells assessed as inhibition of LPS-NO production at 20 uM by Griess reagent based assay relative to control; assay type: functional
RAW264.7 [2] = experiment: Antiinflammatory activity against mouse RAW264.7 cells assessed as inhibition of LPS-NO production by Griess reagent based assay; assay type: functional, cell-based
RAW264.7 [3] = experiment: Cytotoxicity against mouse RAW264.7 cells assessed as reduction in cell viability incubated for 24 hrs by MTT assay; assay type: toxicity, cell-based; details: raw264.7, 24 h
Mus musculus [4] = experiment: Antiinflammatory activity in LPS-induced BALB/c sepsis mouse model assessed as decrease in serum ALT level at 2.5 mg/kg preadministered with compound via gavage for 14 days followed by LPS stimulation and measured after 6 hrs; assay type: functional, organism-based; details: time 342.0 hrs
Mus musculus [5] = experiment: Antiinflammatory activity in LPS-induced BALB/c sepsis mouse model assessed as decrease in infiltration of macrophages in spleen at 2.5 mg/kg preadministered with compound via gavage for 14 days followed by LPS stimulation and measured after 6 hrs by immunohistochemistry analysis; assay type: functional, organism-based; details: time 342.0 hrs
Mus musculus [6] = experiment: Antiinflammatory activity in LPS-induced BALB/c sepsis mouse model assessed as decrease in cell gap in spleen at 2.5 mg/kg preadministered with compound via gavage for 14 days followed by LPS stimulation and measured after 6 hrs by H&E staining based analysis; assay type: functional, organism-based; details: time 342.0 hrs
Mus musculus [7] = experiment: Antiinflammatory activity in LPS-induced BALB/c sepsis mouse model assessed as decrease in serum creatinine level at 2.5 mg/kg preadministered with compound via gavage for 14 days followed by LPS stimulation and measured after 6 hrs; assay type: functional, organism-based; details: time 342.0 hrs
Mus musculus [8] = experiment: Antiinflammatory activity in LPS-induced BALB/c sepsis mouse model assessed as decrease in serum BUN level at 2.5 mg/kg preadministered with compound via gavage for 14 days followed by LPS stimulation and measured after 6 hrs; assay type: functional, organism-based; details: time 342.0 hrs
Mus musculus [9] = experiment: Antiinflammatory activity in LPS-induced BALB/c sepsis mouse model assessed as decrease in serum IL-6 level at 2.5 mg/kg preadministered with compound via gavage for 14 days followed by LPS stimulation and measured after 6 hrs by ELISA; assay type: functional, organism-based; details: time 342.0 hrs
Mus musculus [10] = experiment: Antiinflammatory activity in LPS-induced BALB/c sepsis mouse model assessed as decrease in inflammatory cells in spleen at 2.5 mg/kg preadministered with compound via gavage for 14 days followed by LPS stimulation and measured after 6 hrs by H&E staining based analysis; assay type: functional, organism-based; details: time 342.0 hrs
Mus musculus [11] = experiment: Antiinflammatory activity in LPS-induced BALB/c sepsis mouse model assessed as increase in SOD level in serum at 2.5 mg/kg preadministered with compound via gavage for 14 days followed by LPS stimulation and measured after 6 hrs; assay type: functional, organism-based; details: time 342.0 hrs
Mus musculus [12] = experiment: Antiinflammatory activity in LPS-induced BALB/c sepsis mouse model assessed as decrease in serum IL-1beta level at 2.5 mg/kg preadministered with compound via gavage for 14 days followed by LPS stimulation and measured after 6 hrs by ELISA; assay type: functional, organism-based; details: time 342.0 hrs
Mus musculus [13] = experiment: Antiinflammatory activity in LPS-induced BALB/c sepsis mouse model assessed as decrease in MDA level in serum at 2.5 mg/kg preadministered with compound via gavage for 14 days followed by LPS stimulation and measured after 6 hrs; assay type: functional, organism-based; details: time 342.0 hrs
RAW264.7 [14] = experiment: Antiinflammatory activity in LPS-induced mouse RAW264.7 cells assessed as reduction in ROS level at 10 uM pretreated with compound followed by LPS stimulation and measured after 1 hrs by flow cytometric analysis; assay type: functional, cell-based
Mus musculus [15] = experiment: Antiinflammatory activity in LPS-induced BALB/c sepsis mouse model assessed as decrease in serum TNF-alpha level at 2.5 mg/kg preadministered with compound via gavage for 14 days followed by LPS stimulation and measured after 6 hrs by ELISA; assay type: functional, organism-based; details: time 342.0 hrs
Mus musculus [16] = experiment: Antiinflammatory activity in LPS-induced BALB/c sepsis mouse model assessed as decrease in serum AST level at 2.5 mg/kg preadministered with compound via gavage for 14 days followed by LPS stimulation and measured after 6 hrs; assay type: functional, organism-based; details: time 342.0 hrs
Mus musculus [17] = experiment: Antiinflammatory activity in LPS-induced BALB/c sepsis mouse model assessed as increase in GSH level in serum at 2.5 mg/kg preadministered with compound via gavage for 14 days followed by LPS stimulation and measured after 6 hrs; assay type: functional, organism-based; details: time 342.0 hrs

Row | Compound | inhibition at 20 µM (MV4-11) | other results
1 | CN1CCC(c2cc(-c3ccncc3)[nH]n2)CC1 | 3.39% | 
2 | Clc1cc(-c2cc(C3CCNCC3)n[nH]2)ccn1 | 35.6% | 
3 | CN1CCN(c2ccc(-c3cc(C4CCNCC4)n[nH]3)cc2)CC1 | 8.5% | inhibition at 20 µM (RAW264.7 [1]): > 50%
4 | Fc1cnccc1-c1cc(C2CCNCC2)n[nH]1 | 0.1% | Activity (RAW264.7 [2]): inactive; Activity (RAW264.7 [3]): Non-Toxic
5 | c1ncc(-c2cc(C3CCNCC3)n[nH]2)cn1 | 0.1% | 
6 | Fc1cc(-c2cc(C3CCNCC3)n[nH]2)ccn1 | 0.1% | 
7 | c1cnc(-c2cc(C3CCNCC3)n[nH]2)cn1 | 0.1% | 
8 | N#Cc1ccc(-c2cc(C3CCNCC3)n[nH]2)cc1 | 6% | inhibition at 20 µM (RAW264.7 [1]): > 50%
9 | FC(F)(F)c1ccc(-c2cc(C3CCNCC3)n[nH]2)cc1 | 36% | 
10 | Cc1cc(F)ccc1-c1cc(C2CCNCC2)n[nH]1 | 31.2% | 
11 | FC(F)(F)c1cc(-c2cc(C3CCNCC3)n[nH]2)ccn1 | 52.5% | 
12 | c1cc(-c2cc(C3CCNCC3)n[nH]2)ccn1 | 51.2% | Activity (RAW264.7 [2]): inactive
13 | Nc1ncc(-c2cc(C3CCNCC3)n[nH]2)cn1 | 37.9% | 
14 | Brc1cc(-c2cc(C3CCNCC3)n[nH]2)ccn1 | 20.7% | 
15 | Nc1cc(-c2cc(C3CCNCC3)n[nH]2)ccn1 | 33.3% | Activity (RAW264.7 [2]): inactive; Activity (RAW264.7 [3]): Non-Toxic
16 | Clc1cnccc1-c1cc(C2CCNCC2)n[nH]1 | 32.8% | 
17 | Cc1cc(-c2cc(C3CCNCC3)n[nH]2)ccn1 | 0.1% | 
18 | Fc1ccc(-c2cc(C3CCNCC3)n[nH]2)cc1F | 6.4% | 
19 | Cc1cc(-c2cc(C3CCNCC3)n[nH]2)cc(C)n1 | 0.2% | 
20 | Fc1cc(F)cc(-c2cc(C3CCNCC3)n[nH]2)c1 | 2.1% | 
21 | Clc1cncc(Cl)c1-c1cc(C2CCNCC2)n[nH]1 | 19.6% | 

Row | Compound | inhibition at 20 µM (MV4-11) | other results
22 | CCNc1cc(-c2cc(C3CCNCC3)n[nH]2)ccn1 | 15.4% | 
23 | CNc1cc(-c2cc(C3CCNCC3)n[nH]2)ccn1 | 30.2% | 
24 | O=[N+]([O-])c1ccc(-c2cc(C3CCNCC3)n[nH]2)cc1 | 4.6% | 
25 | Clc1cc(-c2cc(C3CCNCC3)n[nH]2)cc(Cl)n1 | 22.1% | 
26 | Fc1cc(-c2cc(C3CCNCC3)n[nH]2)cc(F)c1F | 3.4% | 
27 | Brc1cnccc1-c1cc(C2CCNCC2)n[nH]1 | 6.1% | 
28 | Fc1ccc(-c2cc(C3CCNCC3)n[nH]2)cc1 | 0.1% | 
29 | Nc1ncccc1-c1cc(C2CCNCC2)n[nH]1 | 15.2% | 
30 | Fc1cccc(-c2cc(C3CCNCC3)n[nH]2)c1 | 0.1% | 
31 | c1cc(-c2cc(C3CCNCC3)n[nH]2)cs1 | 0.1% | 
32 | C[C@@H]1C[C@H]2[C@@H]3CCC4=CC(=O)C=C[C@]4(C)[C@@]3(F)[C@@H](O)C[C@]2(C)[C@@]1(O)C(=O)CO |  | Activity (Mus musculus [4]): Active; Activity (Mus musculus [5]): Active; Activity (Mus musculus [6]): Active; Activity (Mus musculus [7]): Active; Activity (Mus musculus [8]): Active; Activity (Mus musculus [9]): Active; Activity (Mus musculus [10]): Active; Activity (Mus musculus [11]): Active; Activity (Mus musculus [12]): Active; Activity (Mus musculus [13]): Active; Activity (RAW264.7 [14]): Active; Activity (Mus musculus [15]): Active; Activity (Mus musculus [16]): Active; Activity (Mus musculus [17]): Active
33 | c1cncc(-c2cc(C3CCNCC3)n[nH]2)c1 | 0.2% | 
34 | Fc1ccc(-c2cc(C3CCNCC3)n[nH]2)c(F)c1 | 9.8% | 
35 | c1ccc(-c2cc(C3CCNCC3)n[nH]2)cc1 | 0.3% | 
36 | Nc1ccc(-c2cc(C3CCNCC3)n[nH]2)cn1 | 35% | 
37 | c1ncc(-c2cc(C3CCNCC3)n[nH]2)s1 | 11.1% | 
38 | c1cc(-c2cc(C3CCNCC3)[nH]n2)ccn1 |  | Activity (RAW264.7 [3]): Non-Toxic
39 | CN(C)c1cc(-c2cc(C3CCNCC3)n[nH]2)ccn1 | 56.9% | 
40 | COc1cc(-c2cc(C3CCNCC3)n[nH]2)ccn1 | 19.3% | 
41 | Cn1ccc2c(-c3cc(C4CCNCC4)n[nH]3)ccnc21 | 23.8% | 
42 | c1cc(-c2cc(C3CCNCC3)n[nH]2)ncn1 | 0.2% | 

Source: ChEMBL document CHEMBL5537205, “Discovery of D25, a Potent and Selective MNK Inhibitor for Sepsis-Associated Acute Spleen Injury” (J Med Chem, 2024)
